In patent US20260356819A1, “OXOISOINDOLINYL-SUBSTITUTED […] DERIVATIVE AND USE THEREOF” (GLUETACS THERAPEUTICS (SHANGHAI) CO., LTD., priority 2023, published 2026):

How the values were obtained:
MM.1S cells = experiment: Inhibition of proliferation of multiple myeloma cells MM.1S (cell viability assay, 96 h); type: cell-based, human; details: read-out: inhibitory activity (IC50) against tumor cells proliferation, MM.1S
Procedure: The tumor cells used herein were cultured in a cell culture medium listed in table 2 at 37 °C in an incubator with 5% CO2. Prior to experimentation, all cell lines used were correctly identified by STR profiling, and tested negative for Mycoplasma contamination using a Mycoplasma detection kit through routine screenings.
The IC50 values of the compounds of the present disclosure (including the compounds in Table 1, and Examples 1-498) were determined using the CellTiter-Meiluncell Luminescent Cell Viability Assay Kit from Dalian Meilun Biotech Co., Ltd. The detailed procedure is as follows: Tumor cells were seeded in 96-well cell culture plates at the densities specified in Table 3. On the following day, the test compounds of the present disclosure were subjected to serial dilution. […] Subsequently, 0.5 μL of the test compound dilution was transferred into the 96-well plate containing the cells, with each well containing 100 μL of cell culture medium. […] Into the 96-well plate, the diluted test compounds and corresponding detection reagents were added, resulting in final test compound concentrations of 500 nM and 10 nM, respectively. The experimental procedure is described below using the diluted 2 μM test compound as an example.
0.5 μL of the aforementioned diluted compound of the present disclosure (including the compounds in Table 1, and Examples 1-498) was added to the seeded cells in 100 μL of medium, yielding a final test compound concentration of 10 nM. After the cells were treated with the compounds of the present disclosure for a specified period, the cell viability assay reagent was added to the culture medium according to the kit's instructions to determine cell viability. […] All controls were treated using the same procedure as the compounds of the present disclosure. The growth inhibition curves for the compounds of the present disclosure were plotted using Prism GraphPad software, and the IC50 values were calculated therefrom.

WEE1 = molecular target: T1, WEE1 (Homo sapiens, UniProt P30291+Q96SW2); experiment: Western blot degradation of WEE1 in hPBMCs (24 h); type: cell-based; details: compounds at 50 nM and 500 nM
T1 construct: The supernatant was aspirated as the extracted total cell protein; endogenous in cells; host or cells: human peripheral blood mononuclear cells (hPBMCs)
Outline: (§1)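 Read-out is Western blot band grayscale, divided by internal control band and normalised to give percent target protein remaining; degradation rate is 1 minus that value. Cells were human PBMCs exposed to compound at 50 nM and 500 nM for 24 hours.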

IKZF1 = molecular target: T2, IKZF1 (Homo sapiens, UniProt Q13422+Q96SW2); experiment: Western blot degradation of IKZF1 in hPBMCs (24 h); type: cell-based; details: compounds at 50 nM and 500 nM
T2 construct: The supernatant was aspirated as the extracted total cell protein; endogenous in cells; host or cells: human peripheral blood mononuclear cells (hPBMCs)
Outline: as §1

IKZF2 = molecular target: T3, IKZF2 (Homo sapiens, UniProt Q96SW2+Q9UKS7); experiment: Western blot degradation of IKZF2 in hPBMCs (24 h); type: cell-based; details: compounds at 50 nM and 500 nM
T3 construct: The supernatant was aspirated as the extracted total cell protein; endogenous in cells; host or cells: human peripheral blood mononuclear cells (hPBMCs)
Outline: as §1

IKZF3 = molecular target: T4, IKZF3 (Homo sapiens, UniProt Q96SW2+Q9UKT9); experiment: Western blot degradation of IKZF3 in hPBMCs (24 h); type: cell-based; details: compounds at 50 nM and 500 nM
T4 construct: The supernatant was aspirated as the extracted total cell protein; endogenous in cells; host or cells: human peripheral blood mononuclear cells (hPBMCs)
Outline: as §1

CK1α = molecular target: T5, CK1α (Homo sapiens, UniProt P48729+Q96SW2); experiment: Western blot degradation of CK1α in hPBMCs (24 h); type: cell-based; details: compounds at 50 nM and 500 nM
T5 construct: The supernatant was aspirated as the extracted total cell protein; endogenous in cells; host or cells: human peripheral blood mononuclear cells (hPBMCs)
Outline: as §1

GSPT1 = molecular target: T6, GSPT1 (Homo sapiens, UniProt P15170+Q96SW2); experiment: Western blot degradation of GSPT1 in hPBMCs (24 h); type: cell-based; details: compounds at 50 nM and 500 nM
T6 construct: The supernatant was aspirated as the extracted total cell protein; endogenous in cells; host or cells: human peripheral blood mononuclear cells (hPBMCs)
Outline: as §1

T1 sequence (P30291 whole entry): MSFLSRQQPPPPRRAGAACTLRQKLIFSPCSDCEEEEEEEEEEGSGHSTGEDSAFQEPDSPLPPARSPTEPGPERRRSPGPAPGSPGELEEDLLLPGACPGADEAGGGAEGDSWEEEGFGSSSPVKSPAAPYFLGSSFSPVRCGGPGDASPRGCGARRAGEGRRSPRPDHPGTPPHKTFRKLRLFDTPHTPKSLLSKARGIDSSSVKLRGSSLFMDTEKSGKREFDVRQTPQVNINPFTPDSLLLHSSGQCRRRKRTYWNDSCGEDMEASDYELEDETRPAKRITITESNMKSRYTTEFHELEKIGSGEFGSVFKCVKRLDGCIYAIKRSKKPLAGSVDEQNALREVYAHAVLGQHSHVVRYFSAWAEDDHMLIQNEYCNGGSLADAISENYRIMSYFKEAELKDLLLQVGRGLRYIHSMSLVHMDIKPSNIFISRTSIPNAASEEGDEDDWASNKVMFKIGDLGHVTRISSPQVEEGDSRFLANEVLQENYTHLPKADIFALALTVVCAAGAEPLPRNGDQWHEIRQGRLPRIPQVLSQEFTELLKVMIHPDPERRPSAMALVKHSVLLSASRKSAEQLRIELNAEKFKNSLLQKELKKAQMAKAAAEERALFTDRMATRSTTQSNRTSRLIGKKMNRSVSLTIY
T1 sequence (Q96SW2 whole entry): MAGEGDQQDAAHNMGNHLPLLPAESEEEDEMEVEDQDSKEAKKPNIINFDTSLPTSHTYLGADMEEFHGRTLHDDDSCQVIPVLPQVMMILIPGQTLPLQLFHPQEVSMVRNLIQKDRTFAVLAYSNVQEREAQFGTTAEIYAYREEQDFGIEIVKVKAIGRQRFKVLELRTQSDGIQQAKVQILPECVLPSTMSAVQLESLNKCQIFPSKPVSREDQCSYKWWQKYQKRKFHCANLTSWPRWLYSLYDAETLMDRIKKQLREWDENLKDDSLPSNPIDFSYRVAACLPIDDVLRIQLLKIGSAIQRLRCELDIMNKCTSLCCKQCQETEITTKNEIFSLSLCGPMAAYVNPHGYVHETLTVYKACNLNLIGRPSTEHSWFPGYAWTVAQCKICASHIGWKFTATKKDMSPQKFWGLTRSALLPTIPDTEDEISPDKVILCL
T1 sequence (Q16531 whole entry partner): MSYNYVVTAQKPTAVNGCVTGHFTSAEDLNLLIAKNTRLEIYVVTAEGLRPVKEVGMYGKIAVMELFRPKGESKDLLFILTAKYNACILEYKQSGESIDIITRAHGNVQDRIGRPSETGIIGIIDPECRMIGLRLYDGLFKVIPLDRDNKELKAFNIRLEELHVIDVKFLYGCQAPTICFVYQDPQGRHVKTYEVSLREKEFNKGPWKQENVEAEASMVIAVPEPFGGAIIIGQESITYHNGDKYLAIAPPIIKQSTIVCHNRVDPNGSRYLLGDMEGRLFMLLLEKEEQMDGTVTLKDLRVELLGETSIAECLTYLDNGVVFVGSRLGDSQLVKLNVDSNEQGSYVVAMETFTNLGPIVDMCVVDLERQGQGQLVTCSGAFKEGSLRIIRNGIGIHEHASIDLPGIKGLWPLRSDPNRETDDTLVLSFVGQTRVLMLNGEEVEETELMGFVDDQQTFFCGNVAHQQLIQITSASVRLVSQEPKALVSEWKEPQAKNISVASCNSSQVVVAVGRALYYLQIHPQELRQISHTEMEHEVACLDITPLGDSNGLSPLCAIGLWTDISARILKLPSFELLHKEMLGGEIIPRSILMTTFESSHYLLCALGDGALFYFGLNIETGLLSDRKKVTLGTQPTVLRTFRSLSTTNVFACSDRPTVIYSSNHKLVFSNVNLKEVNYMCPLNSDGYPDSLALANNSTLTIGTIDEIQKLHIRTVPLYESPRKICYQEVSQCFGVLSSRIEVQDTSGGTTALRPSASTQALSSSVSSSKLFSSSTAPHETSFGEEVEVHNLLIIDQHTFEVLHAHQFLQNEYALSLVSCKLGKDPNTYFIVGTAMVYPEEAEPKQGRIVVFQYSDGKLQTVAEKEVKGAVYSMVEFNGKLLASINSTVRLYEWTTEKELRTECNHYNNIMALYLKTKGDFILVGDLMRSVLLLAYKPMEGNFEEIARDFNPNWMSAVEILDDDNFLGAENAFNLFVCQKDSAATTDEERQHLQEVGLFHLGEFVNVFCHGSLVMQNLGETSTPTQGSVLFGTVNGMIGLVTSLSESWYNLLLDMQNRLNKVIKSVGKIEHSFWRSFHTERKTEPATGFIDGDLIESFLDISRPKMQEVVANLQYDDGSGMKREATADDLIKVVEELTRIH
T4 sequence (Q9UKT9 whole entry): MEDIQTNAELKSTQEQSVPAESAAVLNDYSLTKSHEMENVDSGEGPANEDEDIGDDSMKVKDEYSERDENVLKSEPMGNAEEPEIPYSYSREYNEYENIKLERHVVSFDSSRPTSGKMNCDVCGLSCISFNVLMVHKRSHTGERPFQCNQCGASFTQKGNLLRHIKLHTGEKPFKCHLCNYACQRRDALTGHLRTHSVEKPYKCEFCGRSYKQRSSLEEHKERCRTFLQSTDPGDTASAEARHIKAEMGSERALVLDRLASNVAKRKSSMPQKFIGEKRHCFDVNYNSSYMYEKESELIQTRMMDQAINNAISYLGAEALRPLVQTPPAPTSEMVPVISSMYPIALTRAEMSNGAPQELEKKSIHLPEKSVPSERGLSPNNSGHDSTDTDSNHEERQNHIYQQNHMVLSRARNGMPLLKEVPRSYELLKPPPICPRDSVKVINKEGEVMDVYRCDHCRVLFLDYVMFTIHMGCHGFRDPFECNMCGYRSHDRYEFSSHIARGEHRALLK
T4 sequence (Q96SW2 whole entry): as the sequence (Q96SW2 whole entry) above
T4 sequence (Q16531 whole entry partner): as the sequence (Q16531 whole entry partner) above
T3 sequence (Q9UKS7 whole entry): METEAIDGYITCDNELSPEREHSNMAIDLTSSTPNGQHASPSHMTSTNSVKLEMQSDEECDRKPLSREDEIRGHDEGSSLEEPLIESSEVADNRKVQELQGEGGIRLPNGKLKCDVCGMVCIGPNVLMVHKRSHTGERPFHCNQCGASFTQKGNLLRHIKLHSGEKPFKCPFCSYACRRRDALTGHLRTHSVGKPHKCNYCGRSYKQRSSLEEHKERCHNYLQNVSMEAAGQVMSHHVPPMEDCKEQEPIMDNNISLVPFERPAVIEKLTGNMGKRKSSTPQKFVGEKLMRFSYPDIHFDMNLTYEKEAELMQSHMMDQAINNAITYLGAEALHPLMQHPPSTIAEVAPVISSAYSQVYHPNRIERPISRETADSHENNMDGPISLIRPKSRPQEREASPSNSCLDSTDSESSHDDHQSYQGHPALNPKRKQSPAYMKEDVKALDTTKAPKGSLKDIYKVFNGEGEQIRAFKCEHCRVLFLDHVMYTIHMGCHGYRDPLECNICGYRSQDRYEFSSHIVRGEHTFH
T3 sequence (Q96SW2 whole entry): as the sequence (Q96SW2 whole entry) above
T3 sequence (Q16531 whole entry partner): as the sequence (Q16531 whole entry partner) above
T6 sequence (P15170 whole entry): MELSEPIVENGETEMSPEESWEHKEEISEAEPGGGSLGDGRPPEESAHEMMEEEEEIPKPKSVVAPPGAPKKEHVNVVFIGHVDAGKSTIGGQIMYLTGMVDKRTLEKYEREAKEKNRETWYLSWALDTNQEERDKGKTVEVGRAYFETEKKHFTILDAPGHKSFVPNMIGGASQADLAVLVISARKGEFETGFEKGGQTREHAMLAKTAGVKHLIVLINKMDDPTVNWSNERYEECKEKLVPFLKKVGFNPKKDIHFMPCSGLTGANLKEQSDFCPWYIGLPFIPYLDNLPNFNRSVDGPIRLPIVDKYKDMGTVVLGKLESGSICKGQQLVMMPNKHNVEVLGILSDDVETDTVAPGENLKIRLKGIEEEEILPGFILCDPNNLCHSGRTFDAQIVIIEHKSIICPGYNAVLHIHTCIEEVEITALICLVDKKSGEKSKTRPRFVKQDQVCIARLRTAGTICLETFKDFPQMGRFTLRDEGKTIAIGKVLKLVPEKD
T6 sequence (Q96SW2 whole entry): as the sequence (Q96SW2 whole entry) above
T6 sequence (Q16531 whole entry partner): as the sequence (Q16531 whole entry partner) above
T5 sequence (P48729 whole entry): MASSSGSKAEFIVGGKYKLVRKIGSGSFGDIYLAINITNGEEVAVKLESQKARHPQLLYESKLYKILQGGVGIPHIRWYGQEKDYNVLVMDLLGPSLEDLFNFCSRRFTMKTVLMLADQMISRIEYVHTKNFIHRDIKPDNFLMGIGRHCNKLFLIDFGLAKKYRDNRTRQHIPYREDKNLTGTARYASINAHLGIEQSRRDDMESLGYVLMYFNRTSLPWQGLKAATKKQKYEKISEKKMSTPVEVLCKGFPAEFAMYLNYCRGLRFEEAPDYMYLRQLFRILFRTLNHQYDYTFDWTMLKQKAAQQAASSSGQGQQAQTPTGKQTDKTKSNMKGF
T5 sequence (Q96SW2 whole entry): as the sequence (Q96SW2 whole entry) above
T5 sequence (Q16531 whole entry partner): as the sequence (Q16531 whole entry partner) above

Cc1ccc(Sc2ccccc2N2CCN(Cc3ccc4c(c3)CN(N3CCC(=O)NC3=O)C4=O)CC2)c(C)c1 [GT-04867, 1-(5-((4-(2-((2,4-dimethylphenyl)thio)phenyl)piperazin-1-yl)methyl)-1-oxoisoindolin-2-yl)dihydropyrimidine-2,4(1H,3H)-dione]
IC50 (MM.1S cells): 500 to 1000 nM | WEE1 substrate protein remaining % (WEE1): B (80%< substrate protein remaining % ≤100%) | IKZF1 substrate protein remaining % (IKZF1): A (0% ≤ substrate protein remaining % ≤80%) | IKZF2 substrate protein remaining % (IKZF2): B (80%< substrate protein remaining % ≤100%) | IKZF3 substrate protein remaining % (IKZF3): B (80%< substrate protein remaining % ≤100%) | CK1α substrate protein remaining % (CK1α): B (80%< substrate protein remaining % ≤100%) | GSPT1 substrate protein remaining % (GSPT1): A (0% ≤ substrate protein remaining % ≤80%)

O=C1CCN(N2Cc3cc(CN4CC=C(c5ccoc5)CC4)ccc3C2=O)C(=O)N1 [GT-04875, 1-(5-((4-(furan-3-yl)-3,6-dihydropyridin-1(2H)-yl)methyl)-1-oxoisoindolin-2-yl)dihydropyrimidine-2,4(1H,3H)-dione]
IC50 (MM.1S cells): 300 to 500 nM | WEE1 substrate protein remaining % (WEE1): A (0% ≤ substrate protein remaining % ≤80%) | IKZF1 substrate protein remaining % (IKZF1): B (80%< substrate protein remaining % ≤100%) | IKZF2 substrate protein remaining % (IKZF2): B (80%< substrate protein remaining % ≤100%) | IKZF3 substrate protein remaining % (IKZF3): B (80%< substrate protein remaining % ≤100%) | CK1α substrate protein remaining % (CK1α): B (80%< substrate protein remaining % ≤100%) | GSPT1 substrate protein remaining % (GSPT1): A (0% ≤ substrate protein remaining % ≤80%)

O=C1CCN(N2Cc3cc(CN4CCN(C(c5ccc(F)cc5)c5ccc(F)cc5)CC4)ccc3C2=O)C(=O)N1 [GT-04894, 1-(5-((4-(bis(4-fluorophenyl)methyl)piperazin-1-yl)methyl)-1-oxoisoindolin-2-yl)dihydropyrimidine-2,4(1H,3H)-dione]
IC50 (MM.1S cells): 500 to 1000 nM | WEE1 substrate protein remaining % (WEE1): A (0% ≤ substrate protein remaining % ≤80%) | IKZF1 substrate protein remaining % (IKZF1): A (0% ≤ substrate protein remaining % ≤80%) | IKZF2 substrate protein remaining % (IKZF2): A (0% ≤ substrate protein remaining % ≤80%) | IKZF3 substrate protein remaining % (IKZF3): B (80%< substrate protein remaining % ≤100%) | CK1α substrate protein remaining % (CK1α): B (80%< substrate protein remaining % ≤100%) | GSPT1 substrate protein remaining % (GSPT1): A (0% ≤ substrate protein remaining % ≤80%)

CC1(C)CCC(CN2CCN(Cc3ccc4c(c3)CN(N3CCC(=O)NC3=O)C4=O)CC2)=C(c2ccc(Cl)cc2)C1 [GT-04944, 1-(5-((4-((4′-chloro-5,5-dimethyl-3,4,5,6-tetrahydro-[1,1′-biphenyl]-2-yl)methyl)piperazin-1-yl)methyl)-1-oxoisoindolin-2-yl)dihydropyrimidine-2,4(1H,3H)-dione]
IC50 (MM.1S cells): 500 to 1000 nM | WEE1 substrate protein remaining % (WEE1): B (80%< substrate protein remaining % ≤100%) | IKZF1 substrate protein remaining % (IKZF1): B (80%< substrate protein remaining % ≤100%) | IKZF2 substrate protein remaining % (IKZF2): B (80%< substrate protein remaining % ≤100%) | IKZF3 substrate protein remaining % (IKZF3): B (80%< substrate protein remaining % ≤100%) | CK1α substrate protein remaining % (CK1α): B (80%< substrate protein remaining % ≤100%) | GSPT1 substrate protein remaining % (GSPT1): A (0% ≤ substrate protein remaining % ≤80%)

N#Cc1ccc(N2CCN(Cc3ccc(COc4cccc5c4CN(N4CCC(=O)NC4=O)C5=O)cc3)CC2)c(F)c1 [GT-06132, 4-(4-(4-(((2-(2,4-dioxotetrahydropyrimidin-1(2H)-yl)-1-oxoisoindolin-4-yl)oxy)methyl)benzyl)piperazin-1-yl)-3-fluorobenzonitrile]
IC50 (MM.1S cells): 100 to 300 nM

O=C1CCN(N2C(=O)c3ccc(CN4CCN(c5nc6c(c(N7CCOCC7)n5)SCC6)CC4)cc3C2=O)C(=O)N1 [GT-08451, 2-(2,4-dioxotetrahydropyrimidin-1(2H)-yl)-5-((4-(4-morpholino-6,7-dihydrothieno[3,2-d]pyrimidin-2-yl)piperazin-1-yl)methyl)isoindoline-1,3-dione]
WEE1 substrate protein remaining % (WEE1): B (80%< substrate protein remaining % ≤100%) | IKZF1 substrate protein remaining % (IKZF1): B (80%< substrate protein remaining % ≤100%) | IKZF2 substrate protein remaining % (IKZF2): B (80%< substrate protein remaining % ≤100%) | IKZF3 substrate protein remaining % (IKZF3): A (0% ≤ substrate protein remaining % ≤80%) | CK1α substrate protein remaining % (CK1α): A (0% ≤ substrate protein remaining % ≤80%) | GSPT1 substrate protein remaining % (GSPT1): B (80%< substrate protein remaining % ≤100%)

O=C1CCN(N2C(=O)c3ccc(CN4CCN(c5ncnc6ccsc56)CC4)cc3C2=O)C(=O)N1 [GT-08452, 2-(2,4-dioxotetrahydropyrimidin-1(2H)-yl)-5-((4-(thieno[3,2-d]pyrimidin-4-yl)piperazin-1-yl)methyl)isoindoline-1,3-dione]
WEE1 substrate protein remaining % (WEE1): A (0% ≤ substrate protein remaining % ≤80%) | IKZF1 substrate protein remaining % (IKZF1): A (0% ≤ substrate protein remaining % ≤80%) | IKZF2 substrate protein remaining % (IKZF2): B (80%< substrate protein remaining % ≤100%) | IKZF3 substrate protein remaining % (IKZF3): A (0% ≤ substrate protein remaining % ≤80%) | CK1α substrate protein remaining % (CK1α): A (0% ≤ substrate protein remaining % ≤80%) | GSPT1 substrate protein remaining % (GSPT1): B (80%< substrate protein remaining % ≤100%)

O=C1CCN(N2C(=O)c3ccc(CN4CCN(c5nc(Cl)nc6ccsc56)CC4)cc3C2=O)C(=O)N1 [GT-08453, 5-((4-(2-chlorothieno[3,2-d]pyrimidin-4-yl)piperazin-1-yl)methyl)-2-(2,4-dioxotetrahydropyrimidin-1(2H)-yl)isoindoline-1,3-dione]
WEE1 substrate protein remaining % (WEE1): B (80%< substrate protein remaining % ≤100%) | IKZF1 substrate protein remaining % (IKZF1): A (0% ≤ substrate protein remaining % ≤80%) | IKZF2 substrate protein remaining % (IKZF2): B (80%< substrate protein remaining % ≤100%) | IKZF3 substrate protein remaining % (IKZF3): A (0% ≤ substrate protein remaining % ≤80%) | CK1α substrate protein remaining % (CK1α): A (0% ≤ substrate protein remaining % ≤80%) | GSPT1 substrate protein remaining % (GSPT1): A (0% ≤ substrate protein remaining % ≤80%)

O=C1CCN(N2C(=O)c3ccc(CN4CCN(c5nc(N6CCOCC6)nc6ccsc56)CC4)cc3C2=O)C(=O)N1 [GT-08455, 2-(2,4-dioxotetrahydropyrimidin-1(2H)-yl)-5-((4-(2-morpholinothieno[3,2-d]pyrimidin-4-yl)piperazin-1-yl)methyl)isoindoline-1,3-dione]
WEE1 substrate protein remaining % (WEE1): B (80%< substrate protein remaining % ≤100%) | IKZF1 substrate protein remaining % (IKZF1): B (80%< substrate protein remaining % ≤100%) | IKZF2 substrate protein remaining % (IKZF2): B (80%< substrate protein remaining % ≤100%) | IKZF3 substrate protein remaining % (IKZF3): A (0% ≤ substrate protein remaining % ≤80%) | CK1α substrate protein remaining % (CK1α): A (0% ≤ substrate protein remaining % ≤80%) | GSPT1 substrate protein remaining % (GSPT1): A (0% ≤ substrate protein remaining % ≤80%)

Cc1nc(C2=CCN(Cc3ccc4c(c3)C(=O)N(N3CCC(=O)NC3=O)C4=O)CC2)c2c(-c3ccccc3)csc2n1 [GT-08484, 2-(2,4-dioxotetrahydropyrimidin-1(2H)-yl)-5-((4-(2-methyl-5-phenylthieno[2,3-d]pyrimidin-4-yl)-3,6-dihydropyridin-1(2H)-yl)methyl)isoindoline-1,3-dione]
WEE1 substrate protein remaining % (WEE1): A (0% ≤ substrate protein remaining % ≤80%) | IKZF1 substrate protein remaining % (IKZF1): A (0% ≤ substrate protein remaining % ≤80%) | IKZF2 substrate protein remaining % (IKZF2): A (0% ≤ substrate protein remaining % ≤80%) | IKZF3 substrate protein remaining % (IKZF3): A (0% ≤ substrate protein remaining % ≤80%) | CK1α substrate protein remaining % (CK1α): A (0% ≤ substrate protein remaining % ≤80%) | GSPT1 substrate protein remaining % (GSPT1): A (0% ≤ substrate protein remaining % ≤80%)

O=C1CCN(N2Cc3cc(CN4CCN(c5nc(N6CCNCC6)c6sccc6n5)CC4)ccc3C2=O)C(=O)N1 [GT-08949, 1-(1-oxo-5-((4-(4-(piperazin-1-yl)thieno[3,2-d]pyrimidin-2-yl)piperazin-1-yl)methyl)isoindolin-2-yl)dihydropyrimidine-2,4(1H,3H)-dione]
WEE1 substrate protein remaining % (WEE1): B (80%< substrate protein remaining % ≤100%) | IKZF1 substrate protein remaining % (IKZF1): B (80%< substrate protein remaining % ≤100%) | IKZF2 substrate protein remaining % (IKZF2): B (80%< substrate protein remaining % ≤100%) | IKZF3 substrate protein remaining % (IKZF3): B (80%< substrate protein remaining % ≤100%) | CK1α substrate protein remaining % (CK1α): B (80%< substrate protein remaining % ≤100%) | GSPT1 substrate protein remaining % (GSPT1): A (0% ≤ substrate protein remaining % ≤80%)
